The supplement of paper PMC10307832

Columns and labels:
Assay in all cases: relative viability (nuclei count vs DMSO), 5 days (fraction); higher = more cells survive
[1] = compound: Cn1cc(-c2cnn3c(N)c(Br)c([C@@H]4CCCNC4)nc23)cn1 + Cc1nc(NC(=O)N2CCC[C@H]2C(N)=O)sc1-c1ccnc(C(C)(C)C(F)(F)F)c1 [Alpelisib] (partner 2 µM)
Outline: (§1)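 Lung cancer cell lines in 1536-well plates were dosed by pin tool the day after seeding, either with one drug alone or with a fixed anchor-drug dose plus five library-drug doses (not always all listed) in √10 steps. After 5 days, cells were fixed and their nuclei stained in one step (final 0.05% Triton X-100, 1% formaldehyde, 1 ug/ml Hoechst), then counted on 4× images. Relative viability is the nuclei count in treated wells divided by that in vehicle wells. Values are medians of duplicate plates.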

[2] = compound: Cn1cc(-c2cnn3c(N)c(Br)c([C@@H]4CCCNC4)nc23)cn1 + Cc1cc(Nc2cc(N3CCN(C)CC3)nc(Sc3ccc(NC(=O)C4CC4)cc3)n2)n[nH]1 [Tozasertib] (partner 0.1 µM)
Outline: as §1

[3] = compound: Cn1cc(-c2cnn3c(N)c(Br)c([C@@H]4CCCNC4)nc23)cn1 + CCNC(=O)c1noc(-c2cc(C(C)C)c(O)cc2O)c1-c1ccc(CN2CCOCC2)cc1 [Luminespib] (partner 0.01 µM)
Outline: as §1

[4] = compound: Cn1cc(-c2cnn3c(N)c(Br)c([C@@H]4CCCNC4)nc23)cn1 + Cc1nc(Nc2ncc(C(=O)Nc3c(C)cccc3Cl)s2)cc(N2CCN(CCO)CC2)n1 [Dasatinib] (partner 0.075 µM)
Outline: as §1

PC-3 [JPC-3] gave a relative viability ([1]; first compound 0.05 µM) of 1.12, a relative viability ([1]; first compound 0.1581 µM) of 1.13 and a relative viability ([1]; first compound 0.5 µM) of 1.13. For the same cell line, the relative viability ([1]; first compound 1.581 µM) was 0.965, the relative viability ([1]; first compound 5 µM) was 1.12 and the relative viability ([2]; first compound 0.05 µM) was 0.812. It also gave a relative viability ([2]; first compound 0.1581 µM) of 0.986, a relative viability ([2]; first compound 0.5 µM) of 0.94 and a relative viability ([2]; first compound 1.581 µM) of 0.75. It also gave a relative viability ([2]; first compound 5 µM) of 0.91, a relative viability ([3]; first compound 0.05 µM) of 0.702 and a relative viability ([3]; first compound 0.1581 µM) of 0.642. The relative viability ([3]; first compound 0.5 µM) was 0.619, the relative viability ([3]; first compound 1.581 µM) was 0.564 and the relative viability ([3]; first compound 5 µM) was 0.748. It also gave a relative viability ([4]; first compound 0.05 µM) of 1.02, a relative viability ([4]; first compound 0.1581 µM) of 1.09 and a relative viability ([4]; first compound 0.5 µM) of 0.826. For the same cell line, the relative viability ([4]; first compound 1.581 µM) was 0.775 and the relative viability ([4]; first compound 5 µM) was 1.01.

For PC-14, the relative viability ([1]; first compound 0.05 µM) was 0.939, the relative viability ([1]; first compound 0.1581 µM) was 1.14 and the relative viability ([1]; first compound 0.5 µM) was 0.883. For the same cell line, the relative viability ([1]; first compound 1.581 µM) was 0.858, the relative viability ([1]; first compound 5 µM) was 0.485 and the relative viability ([2]; first compound 0.05 µM) was 0.634. For the same cell line, the relative viability ([2]; first compound 0.1581 µM) was 0.458, the relative viability ([2]; first compound 0.5 µM) was 0.594 and the relative viability ([2]; first compound 1.581 µM) was 0.438. For the same cell line, the relative viability ([2]; first compound 5 µM) was 0.274, the relative viability ([3]; first compound 0.05 µM) was 0.179 and the relative viability ([3]; first compound 0.5 µM) was 0.179. For the same cell line, the relative viability ([3]; first compound 1.581 µM) was 0.159, the relative viability ([3]; first compound 5 µM) was 0.165 and the relative viability ([4]; first compound 0.05 µM) was 0.272. The relative viability ([4]; first compound 0.1581 µM) was 0.203, the relative viability ([4]; first compound 0.5 µM) was 0.196 and the relative viability ([4]; first compound 1.581 µM) was 0.113. For the same cell line, the relative viability ([4]; first compound 5 µM) was 0.063.

RERF-LC-KJ showed a relative viability ([1]; first compound 0.05 µM) of 0.849, a relative viability ([1]; first compound 0.1581 µM) of 0.846 and a relative viability ([1]; first compound 0.5 µM) of 0.892. For the same cell line, the relative viability ([1]; first compound 1.581 µM) was 0.708, the relative viability ([1]; first compound 5 µM) was 0.717 and the relative viability ([2]; first compound 0.05 µM) was 0.52. For the same cell line, the relative viability ([2]; first compound 0.1581 µM) was 0.502, the relative viability ([2]; first compound 0.5 µM) was 0.501 and the relative viability ([2]; first compound 1.581 µM) was 0.346. For the same cell line, the relative viability ([2]; first compound 5 µM) was 0.384, the relative viability ([3]; first compound 0.05 µM) was 1.34 and the relative viability ([3]; first compound 0.1581 µM) was 1.28. The relative viability ([3]; first compound 0.5 µM) was 0.693, the relative viability ([3]; first compound 1.581 µM) was 0.863 and the relative viability ([3]; first compound 5 µM) was 0.873. For the same cell line, the relative viability ([4]; first compound 0.05 µM) was 0.936, the relative viability ([4]; first compound 0.1581 µM) was 0.806 and the relative viability ([4]; first compound 0.5 µM) was 0.813. For the same cell line, the relative viability ([4]; first compound 1.581 µM) was 0.572 and the relative viability ([4]; first compound 5 µM) was 0.618.

Work on SK-LU-1 yielded a relative viability ([1]; first compound 0.05 µM) of 1.19, a relative viability ([1]; first compound 0.5 µM) of 0.463 and a relative viability ([1]; first compound 1.581 µM) of 0.339. The relative viability ([1]; first compound 5 µM) was 0.248, the relative viability ([2]; first compound 0.05 µM) was 0.35 and the relative viability ([2]; first compound 0.1581 µM) was 0.193. For the same cell line, the relative viability ([2]; first compound 0.5 µM) was 0.192, the relative viability ([2]; first compound 1.581 µM) was 0.201 and the relative viability ([2]; first compound 5 µM) was 0.169. The relative viability ([3]; first compound 0.05 µM) was 0.184, the relative viability ([3]; first compound 0.1581 µM) was 0.207 and the relative viability ([3]; first compound 0.5 µM) was 0.233. For the same cell line, the relative viability ([3]; first compound 1.581 µM) was 0.186, the relative viability ([3]; first compound 5 µM) was 0.165 and the relative viability ([4]; first compound 0.05 µM) was 0.173. For the same cell line, the relative viability ([4]; first compound 0.1581 µM) was 0.132, the relative viability ([4]; first compound 0.5 µM) was 0.148 and the relative viability ([4]; first compound 1.581 µM) was 0.164. It also gave a relative viability ([4]; first compound 5 µM) of 0.118.

SK-MES-1 showed a relative viability ([1]; first compound 0.05 µM) of 1.01, a relative viability ([1]; first compound 0.1581 µM) of 1.03 and a relative viability ([1]; first compound 0.5 µM) of 0.94. For the same cell line, the relative viability ([1]; first compound 1.581 µM) was 0.763, the relative viability ([1]; first compound 5 µM) was 0.592 and the relative viability ([2]; first compound 0.05 µM) was 0.987. It also gave a relative viability ([2]; first compound 0.1581 µM) of 0.675, a relative viability ([2]; first compound 0.5 µM) of 0.57 and a relative viability ([2]; first compound 1.581 µM) of 0.268. The relative viability ([2]; first compound 5 µM) was 0.137, the relative viability ([3]; first compound 0.05 µM) was 0.651 and the relative viability ([3]; first compound 0.1581 µM) was 0.406. For the same cell line, the relative viability ([3]; first compound 0.5 µM) was 0.419, the relative viability ([3]; first compound 1.581 µM) was 0.24 and the relative viability ([3]; first compound 5 µM) was 0.187. For the same cell line, the relative viability ([4]; first compound 0.05 µM) was 0.359, the relative viability ([4]; first compound 0.1581 µM) was 0.308 and the relative viability ([4]; first compound 0.5 µM) was 0.236. It also gave a relative viability ([4]; first compound 1.581 µM) of 0.231 and a relative viability ([4]; first compound 5 µM) of 0.118.

In the case of SW 1573, the relative viability ([1]; first compound 0.05 µM) is reported as 0.779, the relative viability ([1]; first compound 0.1581 µM) is reported as 1.07 and the relative viability ([1]; first compound 0.5 µM) is reported as 0.801. It also gave a relative viability ([1]; first compound 1.581 µM) of 0.78, a relative viability ([1]; first compound 5 µM) of 0.616 and a relative viability ([2]; first compound 0.05 µM) of 0.175. The relative viability ([2]; first compound 0.1581 µM) was 0.175, the relative viability ([2]; first compound 0.5 µM) was 0.17 and the relative viability ([2]; first compound 1.581 µM) was 0.176. For the same cell line, the relative viability ([2]; first compound 5 µM) was 0.149, the relative viability ([3]; first compound 0.05 µM) was 0.211 and the relative viability ([3]; first compound 0.1581 µM) was 0.288. It also gave a relative viability ([3]; first compound 0.5 µM) of 0.21, a relative viability ([3]; first compound 1.581 µM) of 0.185 and a relative viability ([3]; first compound 5 µM) of 0.146. For the same cell line, the relative viability ([4]; first compound 0.05 µM) was 0.604, the relative viability ([4]; first compound 0.1581 µM) was 0.631 and the relative viability ([4]; first compound 0.5 µM) was 0.455. For the same cell line, the relative viability ([4]; first compound 1.581 µM) was 0.247 and the relative viability ([4]; first compound 5 µM) was 0.453.

UMC-11 was tested, and the relative viability ([1]; first compound 0.05 µM) was 1.04, the relative viability ([1]; first compound 0.1581 µM) was 1.07 and the relative viability ([1]; first compound 0.5 µM) was 0.675. It also gave a relative viability ([1]; first compound 1.581 µM) of 0.621, a relative viability ([1]; first compound 5 µM) of 0.579 and a relative viability ([2]; first compound 0.05 µM) of 0.276. It also gave a relative viability ([2]; first compound 0.1581 µM) of 0.204, a relative viability ([2]; first compound 0.5 µM) of 0.217 and a relative viability ([2]; first compound 1.581 µM) of 0.205. The relative viability ([2]; first compound 5 µM) was 0.187, the relative viability ([3]; first compound 0.05 µM) was 1.11 and the relative viability ([3]; first compound 0.1581 µM) was 0.884. The relative viability ([3]; first compound 0.5 µM) was 0.972, the relative viability ([3]; first compound 1.581 µM) was 0.556 and the relative viability ([3]; first compound 5 µM) was 0.392. It also gave a relative viability ([4]; first compound 0.05 µM) of 0.536, a relative viability ([4]; first compound 0.1581 µM) of 0.424 and a relative viability ([4]; first compound 0.5 µM) of 0.32. The relative viability ([4]; first compound 1.581 µM) was 0.312 and the relative viability ([4]; first compound 5 µM) was 0.341.
